From patent US20160015064A1, “COMPOUNDS, COMPOSITIONS, AND METHODS FOR MODULATING SWEET TASTE” (CHROMOCELL CORPORATION, priority 2013, published 2016)

Columns and labels:
[1] = tested on: perception of the sweet taste of an aqueous solution of sweetener; test: Ranking sip and spit test of sweetness perception (R index); format: in vivo, humans; details: vs negative control
Method: The effect of the test compounds on the perception of the sweet taste of an aqueous solution of sweetener in humans was evaluated using a ranking “sip and spit” method.
(§1) The aqueous sweetener solutions were prepared by adding, fructose, sucrose or glucose (by weight), to water to achieve the desired concentration.
Compounds were first prepared as a 500-fold concentrated stock solution in 100% ethanol. These concentrated stocks were then added to the aqueous sweetener solutions to result in a final ethanol concentration of 0.2%. The control (positive and negative) samples were also normalized to 0.2% ethanol.
In the ranking test used for compound evaluation, taste panelists (n=15), rank samples in increasing order of sweetness. One set, comprising of 6 samples, was presented to each panelists at a given time and are asked to rank them in order of increasing sweetness.
Panelists were instructed not to eat or drink (except water) for at least 1 h before the test. During the test, panelists were instructed to sip each sample, swirl it around their mouth and then expectorate. After tasting each set, panelists were instructed to rank the 6 samples within the set from least sweet to most sweet. Where rank 1—is lowest in sweetness and rank 6—is highest in sweetness. Panelists cleansed their palates by rinsing with water, eating a cracker and waiting for an interval of 10 minutes. All samples were tasted at ambient temperatures. Each sample was tasted twice.
R index analysis was utilized to determine the degree of difference between a test and control sample. It indicates the level of discrimination between two samples. […] A positive control sample was used to assess the ability of the panelists to accurately discriminate sweetness perception differences from the negative control.

[2] = tested on: perception of the sweet taste of an aqueous solution of sweetener; test: Two-alternative forced choice sip and spit method (2AFC); format: in vivo, humans
Method: The effect of the test compounds on the perception of the sweet taste of an aqueous solution of sweetener in humans was evaluated using a two-alternative forced choice “sip and spit” method (2AFC).
as §1
Compounds were first prepared as a 500-fold concentrated stock solution in 100% ethanol. These concentrated stocks were then added to the aqueous sweetener solutions to result in a final ethanol concentration of 0.2%. The control (positive and negative) samples were also normalized to 0.2% ethanol. This level of ethanol was not seen to contribute any perceived sweetness.
The 2AFC test used for compound evaluation was a blind and randomized test where taste panelists (n=15) evaluate a pair of sweetener solutions at a time—one sample contains aqueous sweetener solution plus compound (i.e. test) while the other contains aqueous sweetener solution at higher concentration without compound (i.e. positive control). Each test sample was compared against a positive control. For example, if the test sample contained 1× sweetener concentration with compound (e.g. 5% sucrose with compound), the positive control sample contained a 1.1× sweetener concentration (e.g. 5.5% sucrose without compound).
Panelists were instructed not to eat or drink (except water) for at least 1 h before the test. During the test, panelists were instructed to sip each sample, swirl it around their mouth and then expectorate. After tasting each sample in the pair, panelists were instructed to record the sample that is “sweeter” in taste. Panelists cleansed their palates by rinsing with water, eating a cracker and waiting for an interval of about 5 minutes. Each pair was tasted twice. All samples were tasted at ambient temperatures. Data were analyzed using binomial probabilities.
Approximate levels of sweetness enhancement in column 5 of Table 2 were calculated as follows:
Approximate levels of sweetness enhancement=Sweetener concentration of positive control surpassed by the test sample, divided by sweetener concentration for compound-containing sample (e.g. 1.15×=5.75% sucrose/5% sucrose).

[3] = test sample 4% fructose, compound 25 ppm with positive 2AFC

## COc1ccc(C2CC(=O)c3c(O)cccc3O2)cc1O (single isomer, unassigned) [Compound 3, 5-hydroxy-2-(3-hydroxy-4-methoxyphenyl)chroman-4-one]
[1]; 5% sucrose test sample, compound 2.5 ppm
  R Index Score: 78
[2]; [3]
  Fold increase in perceived sweetness: >1.25X
[2]; test sample 5% sucrose, compound 15 ppm with positive 2AFC, positive control surpassed / test sweetener concentration
  Fold increase in perceived sweetness: >1.20X
[2]; test sample 6.5% glucose, compound 25 ppm with positive 2AFC
  Fold increase in perceived sweetness: >1.20X

## COc1ccc(C2CC(=O)c3c(O)cccc3O2)cc1O (single isomer, unassigned) [Compound 2, 5-hydroxy-2-(3-hydroxy-4-methoxyphenyl)chroman-4-one]
[1]; 4% fructose test sample, compound 10 ppm
  R Index Score: 81
[1]; 5% sucrose test sample, compound 10 ppm, significant at R index ≧60
  R Index Score: 90
[2]; [3]
  Fold increase in perceived sweetness: >1.20X
[2]; test sample 5% sucrose, compound 15, 25 ppm with positive 2AFC
  Fold increase in perceived sweetness: >1.20X
[2]; test sample 6.5% glucose, compound 10, 20, 25 ppm with positive 2AFC
  Fold increase in perceived sweetness: >1.15X
